# Measured values as given in article PMC7721803, “Development of a penem antibiotic against Mycobacteroides abscessus” (Communications Biology, 2020).
# Like-named read-outs stand apart in the source and are kept apart here.
# Assays:
# M. abscessus = test: MIC by broth dilution method (Middlebrook 7H9); type: cell-based, Mycobacteroides abscessus
# [1] = system: Mycobacterium tuberculosis reference strain H37Rv; test: MIC by broth dilution method; type: cell-based; conditions: 336 h, 37 °C, 14 days
# Method: MIC of each drug against M. abscessus was determined using the broth dilution method[27] in accordance with CLSI guidelines specific for this organism, except that Middlebrook 7H9 broth was used instead of cation-adjusted Mueller–Hinton broth. Powdered drug stocks were reconstituted in dimethyl sulfoxide and twofold serial dilutions were prepared in Middlebrook 7H9 broth to obtain final drug concentrations ranging from 512 to 0.5 µg/mL in 96-well plates. 10^5 colony forming units (CFU)/mL of M. abscessus from an exponentially growing culture were added to each well. M. abscessus cultured without drug and 7H9 broth alone were included in each plate as positive and negative controls, respectively. […] Growth of M. abscessus or lack thereof was assessed by visual inspection and an MIC for each drug was recorded as the lowest concentration at which M. abscessus growth was not observed. Results are reported as medians determined from three independent biological replicates. […] Middlebrook 7H9 broth was used for this assay and growth or lack thereof of M. tuberculosis was assessed after incubation at 37 °C for 14 days.
# M. abscessus ATCC 19977 = type: cell-based, Mycobacteroides abscessus
# [2] = Mouse plasma protein binding assay (rapid equilibrium dialysis); type: in vitro ADME; conditions: mouse plasma/serum, 4 h
# Method: The plasma protein binding assay was performed with a Rapid Equilibrium Dialysis (RED) device (Thermo Scientific, Rockford, IL) according to the manufacturer’s directions and as previously described. […] Aliquots were taken at 30 min and 4 h, diluted with phosphate-buffered saline (PBS), and quenched in 75 µL cold acetonitrile/water (9:1) + 0.1% formic acid mixture containing 5 µM internal standard 1,8-diazabicyclo(5.4.0)undec-7-ene (DBU). The resulting mixture was incubated at −80 °C for 30 min and subjected to centrifugation at 20,000 × g for 20 min.
# [3] = Stability in mouse plasma; type: in vitro ADME; conditions: 5 μM, 37 °C, over 4 h
# [4] = PK simulation with one-compartmental model (plasma-free drug, fT>MIC); set-up: species or system BALB/c mice
# Method: All procedures involving mice were approved by the Animal Care and Use Committee of Johns Hopkins University. T405 was dissolved in PBS. […] Blood was sampled from three mice per group per time point by mandibular vein puncture or cardiac puncture at the following time points: 5, 15, 30, 60, 120, and 240 min post-dose. Plasma was separated in heparin-containing tubes and frozen. […] Concentration–time data were analyzed by standard non-compartmental and compartmental techniques using WinNonlin (version 7.0; Pharsight, Mountain View, CA). […] A plasma free drug fraction of 2% of the total drug concentration was included in the simulations.
smiles,measurement,setting,value
C[C@@H](O)C1C(=O)N2C(C(=O)O)=C(SC3CN(C4=NCCS4)C3)SC12 (stereo in doubt) [T405],strains exhibiting MICs of ≤4 µg/mL,M. abscessus; 20 clinical M. abscessus strains,17/20
same,MIC of T405 with avibactam,"M. abscessus; ATCC 19977, avibactam 4 µg/mL",0.5 µg/mL
same,MIC50,M. abscessus; Mycobacteroides abscessus,2 µg/mL
same,MIC90,M. abscessus; Mycobacteroides abscessus,8 µg/mL
same,MIC,"M. abscessus; Mycobacteroides abscessus, ATCC19977, reference strain ATCC 19977",2 µg/mL
same,MIC,"M. abscessus; Mycobacteroides abscessus, clinical isolate 1N",2 µg/mL
same,MIC,"M. abscessus; Mycobacteroides abscessus, clinical isolate 2N",2 µg/mL
same,MIC,"M. abscessus; Mycobacteroides abscessus, clinical isolate 3N",2 µg/mL
same,MIC,"M. abscessus; Mycobacteroides abscessus, clinical isolate 4N",1 µg/mL
same,MIC,"M. abscessus; Mycobacteroides abscessus, clinical isolate 5N",1 µg/mL
same,MIC,"M. abscessus; Mycobacteroides abscessus, clinical isolate 8N",4 µg/mL
same,MIC,"M. abscessus; Mycobacteroides abscessus, clinical isolate 11N",8 µg/mL
same,MIC,"M. abscessus; Mycobacteroides abscessus, clinical isolate 13N",1 µg/mL
same,MIC,"M. abscessus; Mycobacteroides abscessus, clinical isolate 14N",8 µg/mL
same,MIC,"M. abscessus; Mycobacteroides abscessus, clinical isolate 202",2 µg/mL
same,MIC,"M. abscessus; Mycobacteroides abscessus, clinical isolate 203",2 µg/mL
same,MIC,"M. abscessus; Mycobacteroides abscessus, clinical isolate 204",8 µg/mL
same,MIC,"M. abscessus; Mycobacteroides abscessus, clinical isolate 214",1 µg/mL
same,MIC,"M. abscessus; Mycobacteroides abscessus, clinical isolate 215",2 µg/mL
same,MIC,"M. abscessus; Mycobacteroides abscessus, clinical isolate JH1801",1 µg/mL
same,MIC,"M. abscessus; Mycobacteroides abscessus, clinical isolate JH1802",4 µg/mL
same,MIC,"M. abscessus; Mycobacteroides abscessus, clinical isolate JHH2",4 µg/mL
same,MIC,"M. abscessus; Mycobacteroides abscessus, clinical isolate JHH4",2 µg/mL
same,MIC,"M. abscessus; Mycobacteroides abscessus, clinical isolate JHH9",4 µg/mL
same,MIC,"M. abscessus; Mycobacteroides abscessus, clinical isolate JHHKB",2 µg/mL
same,Reduction of T405 MIC by addition of avibactam,"M. abscessus; avibactam 4 µg/mL, ATCC 19977 and 10 clinical isolates",two-fold (7 strains) or fourfold (2 strains)
same,MIC,[1],0.5 to 1 µg/mL
same,Reduction in the frequency of resistance on addition of avibactam,M. abscessus ATCC 19977; T405 2 µg/mL with vs without avibactam 256 µg/mL,~3 log
same,Resistance frequency,M. abscessus ATCC 19977; T405 at MIC (2 µg/mL) combined with avibactam at its MIC of 256 µg/mL,5.8 × 10^−9
same,Resistance frequency,"M. abscessus ATCC 19977; drug alone at its individual MIC (T405 2 µg/mL, imipenem 8 µg/mL)",2.0 × 10^−6
same,Frequency of resistance higher than that for imipenem,M. abscessus ATCC 19977; each at its MIC,approximately 1 log
same,blood plasma binding (bound),[2],98%
same,stability in mouse plasma,[3],no measurable degradation
same,simulated plasma-free T405 concentration,"[4]; 25mg/kg alone, 0.083 h",3120 ng/mL
same,simulated plasma-free T405 concentration,"[4]; 25mg/kg alone, 0.25 h",3273.33 ng/mL
same,simulated plasma-free T405 concentration,"[4]; 25mg/kg alone, 0.5 h",2446 ng/mL
same,simulated plasma-free T405 concentration,"[4]; 25mg/kg alone, 1 h",1212.67 ng/mL
same,simulated plasma-free T405 concentration,"[4]; 25mg/kg alone, 2 h",526 ng/mL
same,simulated plasma-free T405 concentration,"[4]; 25mg/kg alone, 4 h",131.67 ng/mL
same,simulated plasma-free T405 concentration,"[4]; 25mg/kg alone, 6 h",29.76 ng/mL
same,simulated plasma-free T405 concentration,"[4]; 25mg/kg alone, 8 h",6.87 ng/mL
same,simulated plasma-free T405 concentration,"[4]; 25mg/kg alone, 10 h",1.58 ng/mL
same,simulated plasma-free T405 concentration,"[4]; 25mg/kg alone, 12 h",0.37 ng/mL
same,simulated plasma-free T405 concentration,"[4]; 25mg/kg alone, 16 h",0.02 ng/mL
same,simulated plasma-free T405 concentration,"[4]; 25mg/kg alone, 20 h",0 ng/mL
same,simulated plasma-free T405 concentration,"[4]; 25mg/kg alone, 24 h",0 ng/mL
same,simulated plasma-free T405 concentration,"[4]; 150mg/kg alone, 0.083 h",18720 ng/mL
same,simulated plasma-free T405 concentration,"[4]; 150mg/kg alone, 0.25 h",19640 ng/mL
same,simulated plasma-free T405 concentration,"[4]; 150mg/kg alone, 0.5 h",14676 ng/mL
same,simulated plasma-free T405 concentration,"[4]; 150mg/kg alone, 1 h",7276 ng/mL
same,simulated plasma-free T405 concentration,"[4]; 150mg/kg alone, 2 h",3156 ng/mL
same,simulated plasma-free T405 concentration,"[4]; 150mg/kg alone, 4 h",790 ng/mL
same,simulated plasma-free T405 concentration,"[4]; 150mg/kg alone, 6 h",178.58 ng/mL
same,simulated plasma-free T405 concentration,"[4]; 150mg/kg alone, 8 h",41.2 ng/mL
same,simulated plasma-free T405 concentration,"[4]; 150mg/kg alone, 10 h",9.51 ng/mL
same,simulated plasma-free T405 concentration,"[4]; 150mg/kg alone, 12 h",2.19 ng/mL
same,simulated plasma-free T405 concentration,"[4]; 150mg/kg alone, 16 h",0.12 ng/mL
same,simulated plasma-free T405 concentration,"[4]; 150mg/kg alone, 20 h",0.01 ng/mL
same,simulated plasma-free T405 concentration,"[4]; 150mg/kg alone, 24 h",0 ng/mL
same,simulated plasma-free T405 concentration,"[4]; 300mg/kg alone, 0.083 h",37440 ng/mL
same,simulated plasma-free T405 concentration,"[4]; 300mg/kg alone, 0.25 h",39280 ng/mL
same,simulated plasma-free T405 concentration,"[4]; 300mg/kg alone, 0.5 h",29352 ng/mL
same,simulated plasma-free T405 concentration,"[4]; 300mg/kg alone, 1 h",14552 ng/mL
same,simulated plasma-free T405 concentration,"[4]; 300mg/kg alone, 2 h",6312 ng/mL
same,simulated plasma-free T405 concentration,"[4]; 300mg/kg alone, 4 h",1580 ng/mL
same,simulated plasma-free T405 concentration,"[4]; 300mg/kg alone, 6 h",357.16 ng/mL
same,simulated plasma-free T405 concentration,"[4]; 300mg/kg alone, 8 h",82.4 ng/mL
same,simulated plasma-free T405 concentration,"[4]; 300mg/kg alone, 10 h",19.01 ng/mL
same,simulated plasma-free T405 concentration,"[4]; 300mg/kg alone, 12 h",4.39 ng/mL
same,simulated plasma-free T405 concentration,"[4]; 300mg/kg alone, 16 h",0.23 ng/mL
same,simulated plasma-free T405 concentration,"[4]; 300mg/kg alone, 20 h",0.01 ng/mL
same,simulated plasma-free T405 concentration,"[4]; 300mg/kg alone, 24 h",0 ng/mL
same,predicted free drug time above MIC (fT>MIC),"[4]; 300 mg/kg twice daily, in the presence of avibactam",above 40%
same,simulated plasma-free T405 concentration,"[4]; 450mg/kg alone, 0.083 h",56160 ng/mL
same,simulated plasma-free T405 concentration,"[4]; 450mg/kg alone, 0.25 h",58920 ng/mL
same,simulated plasma-free T405 concentration,"[4]; 450mg/kg alone, 0.5 h",44028 ng/mL
same,simulated plasma-free T405 concentration,"[4]; 450mg/kg alone, 1 h",21828 ng/mL
same,simulated plasma-free T405 concentration,"[4]; 450mg/kg alone, 2 h",9468 ng/mL
same,simulated plasma-free T405 concentration,"[4]; 450mg/kg alone, 4 h",2370 ng/mL
same,simulated plasma-free T405 concentration,"[4]; 450mg/kg alone, 6 h",535.74 ng/mL
same,simulated plasma-free T405 concentration,"[4]; 450mg/kg alone, 8 h",123.6 ng/mL
same,simulated plasma-free T405 concentration,"[4]; 450mg/kg alone, 10 h",28.52 ng/mL
same,simulated plasma-free T405 concentration,"[4]; 450mg/kg alone, 12 h",6.58 ng/mL
same,simulated plasma-free T405 concentration,"[4]; 450mg/kg alone, 16 h",0.35 ng/mL
same,simulated plasma-free T405 concentration,"[4]; 450mg/kg alone, 20 h",0.02 ng/mL
same,simulated plasma-free T405 concentration,"[4]; 450mg/kg alone, 24 h",0 ng/mL
same,predicted free drug time above MIC (fT>MIC),"[4]; 450 mg/kg twice daily with probenecid, in absence of avibactam",54%
same,predicted free drug time above MIC (fT>MIC),"[4]; 450 mg/kg twice daily with probenecid, in presence of avibactam",72%
same,predicted free drug time above MIC (fT>MIC),"[4]; 450 mg/kg twice daily, free fraction 2%, MIC 0.5 µg/mL (ATCC 19977 in presence of avibactam)",48%
same,predicted free drug time above MIC (fT>MIC),"[4]; 450 mg/kg twice daily, free fraction 2%, MIC 2 µg/mL (absence of avibactam)",35%
same,simulated plasma-free T405 concentration,"[4]; 450mg/kg+Prob (with probenecid), 0.083 h",48480 ng/mL
same,simulated plasma-free T405 concentration,"[4]; 450mg/kg+Prob (with probenecid), 0.25 h",52560 ng/mL
same,simulated plasma-free T405 concentration,"[4]; 450mg/kg+Prob (with probenecid), 0.5 h",44640 ng/mL
same,simulated plasma-free T405 concentration,"[4]; 450mg/kg+Prob (with probenecid), 1 h",29664 ng/mL
same,simulated plasma-free T405 concentration,"[4]; 450mg/kg+Prob (with probenecid), 2 h",16020 ng/mL
same,simulated plasma-free T405 concentration,"[4]; 450mg/kg+Prob (with probenecid), 4 h",6636 ng/mL
same,simulated plasma-free T405 concentration,"[4]; 450mg/kg+Prob (with probenecid), 6 h",2425.1 ng/mL
same,simulated plasma-free T405 concentration,"[4]; 450mg/kg+Prob (with probenecid), 8 h",908.73 ng/mL
same,simulated plasma-free T405 concentration,"[4]; 450mg/kg+Prob (with probenecid), 10 h",340.52 ng/mL
same,simulated plasma-free T405 concentration,"[4]; 450mg/kg+Prob (with probenecid), 12 h",127.6 ng/mL
same,simulated plasma-free T405 concentration,"[4]; 450mg/kg+Prob (with probenecid), 16 h",17.92 ng/mL
same,simulated plasma-free T405 concentration,"[4]; 450mg/kg+Prob (with probenecid), 20 h",2.52 ng/mL
same,simulated plasma-free T405 concentration,"[4]; 450mg/kg+Prob (with probenecid), 24 h",0.35 ng/mL
